In US10405547B2, “Substituted cyclic amides as herbicides” (FMC Corporation, priority 2015, dated 2019):

Legend:
Type in all cases: in vivo
[1] = test system: foxtail, giant (Setaria faberii); experiment: Test A preemergence, giant foxtail; settings: 0 to 100 scale (0 no effect, 100 complete control)
Procedure, shortened: (§1)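 Greenhouse assay; ~10 d; visual injury vs untreated control, scored 0 = no effect through 100 = complete control. Post-emergent seedlings at one–two leaves; pre-emergent seeds in loam/sand given a directed soil spray.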

[2] = test system: ryegrass, Italian (Lolium multiflorum); experiment: Test A postemergence, Italian ryegrass; settings: visual injury, 0 to 100 scale (0 no effect, 100 complete control), approximately 10 days
Procedure, shortened: as §1

rice (Oryza sativa) = experiment: Test B flooded paddy test, rice; settings: applied to paddy water, visual rating after 13 to 15 days, scale 0 (no effect) to 100 (complete control)
Procedure, shortened: (§2)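 Ratings were visual and made relative to untreated controls after 13 to 15 greenhouse days.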

[3] = test system: ducksalad (Heteranthera limosa); experiment: Test B flooded paddy test, ducksalad; settings: applied to paddy water, visual rating after 13 to 15 days, scale 0 (no effect) to 100 (complete control)
Procedure, shortened: as §2

[4] = test system: blackgrass (Alopecurus myosuroides); experiment: Test A postemergence, blackgrass; settings: visual injury, 0 to 100 scale (0 no effect, 100 complete control), approximately 10 days
Procedure, shortened: as §1

kochia (Kochia scoparia) [5] = experiment: Test A postemergence, kochia; settings: visual injury, 0 to 100 scale (0 no effect, 100 complete control), approximately 10 days
Procedure, shortened: as §1

[6] = test system: barnyardgrass (Echinochloa crus-galli); experiment: Test A preemergence, barnyardgrass; settings: 0 to 100 scale (0 no effect, 100 complete control)
Procedure, shortened: as §1

corn (Zea mays) = experiment: Test A postemergence, corn; settings: visual injury, 0 to 100 scale (0 no effect, 100 complete control), approximately 10 days
Procedure, shortened: as §1

[7] = test system: wheat (Triticum aestivum); experiment: Test A postemergence, wheat; settings: visual injury, 0 to 100 scale (0 no effect, 100 complete control), approximately 10 days
Procedure, shortened: as §1

[8] = test system: pigweed (Amaranthus retroflexus); experiment: Test A postemergence, pigweed; settings: visual injury, 0 to 100 scale (0 no effect, 100 complete control), approximately 10 days
Procedure, shortened: as §1

[9] = test system: galium (catchweed bedstraw, Galium aparine); experiment: Test A postemergence, galium; settings: visual injury, 0 to 100 scale (0 no effect, 100 complete control), approximately 10 days
Procedure, shortened: as §1

[10] = test system: foxtail, giant (Setaria faberii); experiment: Test A postemergence, giant foxtail; settings: visual injury, 0 to 100 scale (0 no effect, 100 complete control), approximately 10 days
Procedure, shortened: as §1

[11] = test system: ragweed (common ragweed, Ambrosia elatior); experiment: Test A postemergence, ragweed; settings: visual injury, 0 to 100 scale (0 no effect, 100 complete control), approximately 10 days
Procedure, shortened: as §1

[12] = test system: sedge, umbrella (small-flower umbrella sedge, Cyperus difformis); experiment: Test B flooded paddy test, umbrella sedge; settings: applied to paddy water, visual rating after 13 to 15 days, scale 0 (no effect) to 100 (complete control)
Procedure, shortened: as §2

[13] = test system: barnyardgrass (Echinochloa crus-galli); experiment: Test B flooded paddy test, barnyardgrass; settings: applied to paddy water, visual rating after 13 to 15 days, scale 0 (no effect) to 100 (complete control)
Procedure, shortened: as §2

[14] = test system: barnyardgrass (Echinochloa crus-galli); experiment: Test A postemergence, barnyardgrass; settings: visual injury, 0 to 100 scale (0 no effect, 100 complete control), approximately 10 days
Procedure, shortened: as §1

kochia (Kochia scoparia) [15] = experiment: Test A preemergence, kochia; settings: 0 to 100 scale (0 no effect, 100 complete control)
Procedure, shortened: as §1

[16] = test system: pigweed (Amaranthus retroflexus); experiment: Test A preemergence, pigweed; settings: 0 to 100 scale (0 no effect, 100 complete control)
Procedure, shortened: as §1

[17] = test system: ragweed (common ragweed, Ambrosia elatior); experiment: Test A preemergence, ragweed; settings: 0 to 100 scale (0 no effect, 100 complete control)
Procedure, shortened: as §1

[18] = test system: ryegrass, Italian (Lolium multiflorum); experiment: Test A preemergence, Italian ryegrass; settings: 0 to 100 scale (0 no effect, 100 complete control)
Procedure, shortened: as §1

| Compound | Plant response rating, Foxtail, Giant ([1]; 125 g ai/ha) | Plant response rating, Foxtail, Giant ([1]; 500 g ai/ha) | Plant response rating, Ryegrass, Italian ([2]; 125 g ai/ha) | Plant response rating, Ryegrass, Italian ([2]; 500 g ai/ha) | Plant response rating, Blackgrass ([4]; 125 g ai/ha) | Plant response rating, Blackgrass ([4]; 500 g ai/ha) | Plant response rating, Kochia (kochia (Kochia scoparia) [5]; 125 g ai/ha) | Plant response rating, Kochia (kochia (Kochia scoparia) [5]; 500 g ai/ha) | Plant response rating, Barnyardgrass ([6]; 125 g ai/ha) | Plant response rating, Barnyardgrass ([6]; 500 g ai/ha) | Plant response rating, Corn (corn (Zea mays); 125 g ai/ha) | Plant response rating, Corn (corn (Zea mays); 500 g ai/ha) | Plant response rating, Wheat ([7]; 125 g ai/ha) | Plant response rating, Wheat ([7]; 500 g ai/ha) | Plant response rating, Pigweed ([8]; 125 g ai/ha) | Plant response rating, Pigweed ([8]; 500 g ai/ha) | Plant response rating, Galium ([9]; 125 g ai/ha) | Plant response rating, Galium ([9]; 500 g ai/ha) | Plant response rating, Foxtail, Giant ([10]; 125 g ai/ha) | Plant response rating, Foxtail, Giant ([10]; 500 g ai/ha) | other results |
| --- | --- | --- | --- | --- | --- | --- | --- | --- | --- | --- | --- | --- | --- | --- | --- | --- | --- | --- | --- | --- | --- |
| CN1CC(c2cccc(OC(F)(F)C(F)OC(F)(F)F)c2)C(C(=O)Nc2ccccc2F)C1=O (centres unmarked) [Compound 41] | 80 | 90 | 0 | 20 | 0 | 30 | 20 | 60 | 20 | 90 | 0 | 40 | 0 | 40 | 40 | 80 | 40 | 60 | 50 | 70 | Plant response rating, Rice (Flood) (rice (Oryza sativa); 250 g ai/ha): 20; Plant response rating, Ducksalad (Flood) ([3]; 250 g ai/ha): 100; Plant response rating, Ragweed ([11]; 125 g ai/ha): 0; Plant response rating, Ragweed ([11]; 500 g ai/ha): 0; Plant response rating, Sedge, Umbrella (Flood) ([12]; 250 g ai/ha): 0; Plant response rating, Barnyardgrass (Flood) ([13]; 250 g ai/ha): 0; Plant response rating, Barnyardgrass ([14]; 125 g ai/ha): 50; Plant response rating, Barnyardgrass ([14]; 500 g ai/ha): 50; Plant response rating, Kochia (kochia (Kochia scoparia) [15]; 125 g ai/ha): 30; Plant response rating, Kochia (kochia (Kochia scoparia) [15]; 500 g ai/ha): 60; Plant response rating, Pigweed ([16]; 125 g ai/ha): 70; Plant response rating, Pigweed ([16]; 500 g ai/ha): 90; Plant response rating, Ragweed ([17]; 125 g ai/ha): 20; Plant response rating, Ragweed ([17]; 500 g ai/ha): 70; Plant response rating, Ryegrass, Italian ([18]; 125 g ai/ha): 20; Plant response rating, Ryegrass, Italian ([18]; 500 g ai/ha): 60 |
| O=C1NCC(c2ccccc2Cn2ccc(C(F)(F)F)n2)C1C(=O)Nc1cccc(F)c1F (centres unmarked) [Compound 57] | 60 | 90 | 0 | 0 | 0 | 30 | 0 | 20 | 40 | 90 | 30 | 30 | 0 | 0 | 0 | 20 | 0 | 20 | 40 | 70 | Plant response rating, Rice (Flood) (rice (Oryza sativa); 250 g ai/ha): 0; Plant response rating, Ducksalad (Flood) ([3]; 250 g ai/ha): 0; Plant response rating, Ragweed ([11]; 125 g ai/ha): 0; Plant response rating, Ragweed ([11]; 500 g ai/ha): 30; Plant response rating, Sedge, Umbrella (Flood) ([12]; 250 g ai/ha): 0; Plant response rating, Barnyardgrass (Flood) ([13]; 250 g ai/ha): 0; Plant response rating, Barnyardgrass ([14]; 125 g ai/ha): 0; Plant response rating, Barnyardgrass ([14]; 500 g ai/ha): 60; Plant response rating, Kochia (kochia (Kochia scoparia) [15]; 500 g ai/ha): 0; Plant response rating, Pigweed ([16]; 125 g ai/ha): 0; Plant response rating, Pigweed ([16]; 500 g ai/ha): 0; Plant response rating, Ragweed ([17]; 125 g ai/ha): 0; Plant response rating, Ragweed ([17]; 500 g ai/ha): 0; Plant response rating, Ryegrass, Italian ([18]; 125 g ai/ha): 0; Plant response rating, Ryegrass, Italian ([18]; 500 g ai/ha): 0 |
| O=C1NCC(c2cccc(Oc3ccccn3)c2)C1C(=O)Nc1ccccc1Cl (centres unmarked) [Compound 69] | 0 | 50 | 0 | 0 | 0 | 0 | 0 | 0 | 0 | 0 | 0 | 0 | 0 | 0 | 0 | 0 | 0 | 0 | 0 | 30 | Plant response rating, Rice (Flood) (rice (Oryza sativa); 500 g ai/ha): 0; Plant response rating, Ducksalad (Flood) ([3]; 500 g ai/ha): 70; Plant response rating, Ragweed ([11]; 125 g ai/ha): 0; Plant response rating, Ragweed ([11]; 500 g ai/ha): 0; Plant response rating, Sedge, Umbrella (Flood) ([12]; 500 g ai/ha): 0; Plant response rating, Barnyardgrass (Flood) ([13]; 500 g ai/ha): 0; Plant response rating, Barnyardgrass ([14]; 125 g ai/ha): 0; Plant response rating, Barnyardgrass ([14]; 500 g ai/ha): 20; Plant response rating, Kochia (kochia (Kochia scoparia) [15]; 125 g ai/ha): 0; Plant response rating, Kochia (kochia (Kochia scoparia) [15]; 500 g ai/ha): 0; Plant response rating, Pigweed ([16]; 125 g ai/ha): 0; Plant response rating, Pigweed ([16]; 500 g ai/ha): 0; Plant response rating, Ragweed ([17]; 125 g ai/ha): 0; Plant response rating, Ragweed ([17]; 500 g ai/ha): 0; Plant response rating, Ryegrass, Italian ([18]; 125 g ai/ha): 0; Plant response rating, Ryegrass, Italian ([18]; 500 g ai/ha): 0 |
| O=C1NCC(c2cccc(OCc3ccccc3)c2)C1C(=O)Nc1cccc(F)c1F (centres unmarked) [Compound 65] | 0 | 0 | 0 | 0 | 0 | 0 | 0 | 0 | 0 | 0 | 0 | 0 | 0 | 0 | 0 | 0 | 0 | 0 | 0 | 0 | Plant response rating, Rice (Flood) (rice (Oryza sativa); 500 g ai/ha): 0; Plant response rating, Ducksalad (Flood) ([3]; 500 g ai/ha): 0; Plant response rating, Ragweed ([11]; 125 g ai/ha): 0; Plant response rating, Ragweed ([11]; 500 g ai/ha): 0; Plant response rating, Sedge, Umbrella (Flood) ([12]; 500 g ai/ha): 0; Plant response rating, Barnyardgrass (Flood) ([13]; 500 g ai/ha): 0; Plant response rating, Barnyardgrass ([14]; 125 g ai/ha): 0; Plant response rating, Barnyardgrass ([14]; 500 g ai/ha): 0; Plant response rating, Kochia (kochia (Kochia scoparia) [15]; 125 g ai/ha): 0; Plant response rating, Kochia (kochia (Kochia scoparia) [15]; 500 g ai/ha): 0; Plant response rating, Pigweed ([16]; 125 g ai/ha): 0; Plant response rating, Pigweed ([16]; 500 g ai/ha): 0; Plant response rating, Ragweed ([17]; 125 g ai/ha): 0; Plant response rating, Ragweed ([17]; 500 g ai/ha): 0; Plant response rating, Ryegrass, Italian ([18]; 125 g ai/ha): 0; Plant response rating, Ryegrass, Italian ([18]; 500 g ai/ha): 0 |
